Data reported in patent US8426174B2, “Method for the production of 2-butanol” (Butamax(TM) Advanced Biofuels LLC, priority 2007, dated 2013).
Read-outs that look alike come from different tables or passages of the source.

Experiments:
E. coli strain MG1655 = test system: E. coli strain MG1655
Procedure: A similar study was done with log-phase cultures of E. coli grown in a defined medium. E. coli strain MG1655 was allowed to grow overnight in MOPS 0.2% glucose medium (Teknova, Half Moon Bay, Calif.) at 42° C. or 28° C. The following day, the cultures were diluted into fresh medium and allowed to grow at the same temperature until in the log phase of growth. […] To these were added 10 μL of the log phase cultures and the tubes were immediately placed in shaking incubators at 42° C. or 28° C. or left on ice for 30 min. […] Then 5 μL of the undiluted treated cultures were spotted on LB agar plates. Subsequent 10-fold serial dilutions of 10^−3, 10^−4, 10^−5 and 10^−6 of the exposed cultures were done by serial pipetting of 20 μL, starting with the 10^−2 dilution cultures, into 180 μL of LB medium in the microplate, using a multi-channel pipette. Prior to each transfer, the cultures were mixed by pipetting up and down six times. Each dilution (5 μL) was spotted onto an LB plate using a multi-channel pipette and allowed to soak into the plate. The plates were inverted and incubated overnight at 37° C. […] Survival of 0% was recorded when no colonies in the spots of the undiluted or any of the serial dilutions were observed.

E. coli (strain MG1655) = conditions: for % Survival at 30° C. / % Survival at 37° C. / % Survival at 0° C.: 1 h; for concentration at which E. coli cells were killed: one hour
Procedure: (§1) Using overnight cultures or cells from plates, 30 mL cultures of the microorganisms to be tested were started in the following culture media: • E. coli—Miller's LB medium (Teknova, Half Moon Bay, Calif.): • L. plantarum PN0512—Lactobacilli MRS Broth (BD Diagnostic Systems, Sparks, Md.). The E. coli and L. plantarum cultures were grown at 37° C. aerobically with shaking until the cultures were in log phase and the OD600 was between 0.6 and 0.8. A 50 μL aliquot of each culture was removed for a time zero sample. The remainder of the cultures was divided into six 5 mL portions and placed in six small incubation flasks or tubes. […] The flasks or tubes were incubated at a desired temperature, aerobically without shaking for 1 h. After the incubation with one of the butanols, 2 μL from each of the flasks (and in addition 2 μL of the time zero sample of the culture before exposure to one of the butanols) were pipetted into the “head” wells of a 96 well (8×12) microtiter plate, each containing 198 μL of LB medium to give a 10^−2 dilution of the culture. Subsequently, 10^−3, 10^−4, 10^−5, and 10^−6 serial dilutions of the cultures were prepared as follows. The 10^−3 dilution was prepared by pipetting 20 μL of the sample from the head well into the 180 μL LB medium in the next well using a multi-channel pipette. This procedure was repeated 3 more times on successive wells to prepare the 10^−4, 10^−5, and 10^−6 dilutions. After each liquid transfer, the solution in the well was mixed by pipetting it up and down 10 times with the multi-channel pipetor. A 5 μL aliquot of each dilution was spotted onto an LB plate using a multi-channel pipette starting with the 10^−6 dilution, then the 10^−5, and so on working from more to less dilute without a change of tips. The spots were allowed to soak into the agar by leaving the lid of the plate slightly open for 15 to 30 min in a sterile transfer hood. The plates were covered, inverted, and incubated overnight at 37° C. The following day, the number of colonies in the spots were counted from the different dilutions. The number of living cells/mL in each of the original culture solutions from which the 2 μL was withdrawn was calculated and compared to the number of cells in the control untreated culture to determine the % of the cells surviving.

L. plantarum PN0512 = conditions: for % Survival at 37° C. / % Survival at 23° C. / % Survival at 0° C. / concentration at which L. plantarum PN0512 cells were killed: one hour
Procedure: as §1

[1] = 1.5 % (w/v) 1-butanol, grown at 28° C.
[2] = 1.5 % (w/v) 1-butanol, grown at 42° C.
[3] = 2.0 % (w/v) 1-butanol, grown at 28° C.
[4] = 2.0 % (w/v) 1-butanol, grown at 42° C.
[5] = 3.0 % (w/v) 1-butanol, grown at 28° C.
[6] = 3.0 % (w/v) 1-butanol, grown at 42° C.
[7] = 4.0 % (w/v) 1-butanol, grown at 28° C.
[8] = 4.0 % (w/v) 1-butanol, grown at 42° C.
[9] = […] (w/v) 1-butanol, grown at 42° C.

## 1-butanol
E. coli strain MG1655; 1.0 % (w/v) 1-butanol, grown at 28° C.
  % survival after 30 min exposure at 42° C.: 100%
E. coli strain MG1655; 1.0 % (w/v) 1-butanol, grown at 42° C.
  % survival after 30 min exposure at 42° C.: 100%
E. coli strain MG1655; [1]
  % survival after 30 min exposure at 28° C.: 100%
  % survival after 30 min exposure at 42° C.: 0%
E. coli strain MG1655; [2]
  % survival after 30 min exposure at 28° C.: 100%
  % survival after 30 min exposure at 42° C.: 0%
E. coli strain MG1655; [3]
  % survival after 30 min exposure at 28° C.: 100%
  % survival after 30 min exposure at 42° C.: 0%
E. coli strain MG1655; [4]
  % survival after 30 min exposure at 28° C.: 100%
  % survival after 30 min exposure at 42° C.: 0%
E. coli strain MG1655; [5]
  % survival after 30 min exposure at 28° C.: 0%
  % survival after 30 min exposure at 42° C.: 0%
E. coli strain MG1655; 3.0 % (w/v) 1-butanol, grown at 29° C.
  % survival after 30 min exposure at 0° C.: 100%
E. coli strain MG1655; [6]
  % survival after 30 min exposure at 0° C.: 100%
  % survival after 30 min exposure at 28° C.: 0%
  % survival after 30 min exposure at 42° C.: 0%
E. coli strain MG1655; [7]
  % survival after 30 min exposure at 28° C.: 0%
  % survival after 30 min exposure at 42° C.: 0%
E. coli strain MG1655; 4.0 % (w/v) 1-butanol, grown at 29° C.
  % survival after 30 min exposure at 0° C.: 100%
E. coli strain MG1655; [8]
  % survival after 30 min exposure at 0° C.: 100%
  % survival after 30 min exposure at 28° C.: 0.001%
  % survival after 30 min exposure at 42° C.: 0%
E. coli strain MG1655; 5.0 % (w/v) 1-butanol, grown at 29° C.
  % survival after 30 min exposure at 0° C.: 50%
E. coli strain MG1655; 5.0 % (w/v) 1-butanol, grown at 42° C.
  % survival after 30 min exposure at 0° C.: 10%
E. coli strain MG1655; 6.0 % (w/v) 1-butanol, grown at 29° C.
  % survival after 30 min exposure at 0° C.: 1%
E. coli strain MG1655; 6.0 % (w/v) 1-butanol, grown at 42° C.
  % survival after 30 min exposure at 0° C.: 1%
E. coli strain MG1655; […] (w/v) 1-butanol, grown at 28° C.
  % survival after 30 min exposure at 42° C.: 0%
E. coli strain MG1655; […] (w/v) 1-butanol, grown at 29° C.
  % survival after 30 min exposure at 0° C.: 100%
E. coli strain MG1655; [9]
  % survival after 30 min exposure at 0° C.: 100%
  % survival after 30 min exposure at 42° C.: 0%
E. coli (strain MG1655); 0° C., one hour treatment
  concentration with no toxic effect on E. coli cells: ≤ 4.5 % v/v
E. coli (strain MG1655); 1 % v/v 1-butanol
  % Survival at 30° C.: 100%
  % Survival at 37° C.: 72%
E. coli (strain MG1655); 1.5 % v/v 1-butanol
  % Survival at 30° C.: 100%
  % Survival at 37° C.: 20%
E. coli (strain MG1655); 2 % v/v 1-butanol
  % Survival at 30° C.: 100%
  % Survival at 37° C.: 0%
E. coli (strain MG1655); 3 % v/v 1-butanol
  % Survival at 0° C.: 100%
  % Survival at 30° C.: 0%
  % Survival at 37° C.: 0%
E. coli (strain MG1655); 4 % v/v 1-butanol
  % Survival at 0° C.: 100%
E. coli (strain MG1655); 30° C.
  concentration at which E. coli cells were killed: 3 % v/v
E. coli (strain MG1655); 37° C.
  concentration at which E. coli cells were killed: 2 % v/v
E. coli (strain MG1655); […] v/v 1-butanol
  % Survival at 0° C.: 100%
  % Survival at 37° C.: 0%
L. plantarum PN0512; 0° C., one hour treatment
  concentration with no toxic effect on L. plantarum PN0512 cells: ≤ 4.5 % v/v
L. plantarum PN0512; 1 % v/v 1-butanol
  % Survival at 37° C.: 80%
L. plantarum PN0512; 1.5 % v/v 1-butanol
  % Survival at 37° C.: 58%
L. plantarum PN0512; 2 % v/v 1-butanol
  % Survival at 23° C.: 100%
  % Survival at 37° C.: 29%
L. plantarum PN0512; 3 % v/v 1-butanol
  % Survival at 0° C.: 100%
  % Survival at 23° C.: 82%
  % Survival at 37° C.: 0%
L. plantarum PN0512; 4 % v/v 1-butanol
  % Survival at 0° C.: 100%
  % Survival at 23° C.: 0%
L. plantarum PN0512; 5 % v/v 1-butanol
  % Survival at 0° C.: 0%
L. plantarum PN0512; 5.5 % v/v 1-butanol
  % Survival at 0° C.: 0%
L. plantarum PN0512; 23° C.
  concentration at which L. plantarum PN0512 cells were killed: 3.5 % v/v
L. plantarum PN0512; 37° C.
  concentration at which L. plantarum PN0512 cells were killed: 2.5 % v/v
L. plantarum PN0512; […] v/v 1-butanol
  % Survival at 0° C.: 100%
